Laboratory results as given in publication PMC11407620, “Repurposing auranofin and meclofenamic acid as energy-metabolism inhibitors and anti-cancer drugs” (PLOS ONE, 2024).
Like-named read-outs stand apart in the source and are kept apart here.

Legend:
Cervix HeLa cells = test: Cell proliferation, 24 h drug exposure; assay type: cell-based, human; conditions: for IC50: Cervix HeLa, 24 h, read-out: IC50 for proliferation cell rate; for effect on proliferation after shorter exposure: HeLa cells, 12 h exposure; for TI ratio (3T3/ cancer cells): IC50 3T3 / IC50 HeLa; for TI ratio (H9C2/cancer cells): IC50 H9C2 / IC50 HeLa
Method: All metastatic (breast MDA-MB231, MDA-MB468, cervix HeLa, prostate PC3, colorectal HCT116, COLO205, glioblastoma U373), low-metastatic (breast MCF-7) cancer and non-cancer (fibroblast 3T3, cardiomyocytes H9C2) cell lines (American Type Culture Collection, Rockville, MD, USA) used in this study were cultured in Petri dishes in 20 mL of Dulbecco’s Modified Eagle’s Medium (DMEM, Sigma, MO, USA) supplemented with 10% fetal bovine serum (Biowest, Mexico) and 10,000 U penicillin/streptomycin (Sigma-Aldrich, MO, USA). […] For growth and maintenance, cells were incubated in 5% CO2/95% air at 37°C and kept until 80–90% of confluence was reached. Then, cells were harvested, washed by centrifugation and resuspended in Krebs-Ringer buffer (KR, 125 mM NaCl, 5 mM KCl, 25 mM Hepes, 1 mM MgCl2, 1 mM KH2PO4, 1.4 mM CaCl2, pH 7.4) for further use. For experimentation, cancer cells (3–5 x 10^6 cells) were cultured in DMEM (with 25 mM glucose) for 24 h in the absence of drugs. Afterwards, old-medium was replaced with fresh DMEM medium (with 25 mM glucose) in the absence (control, non-treated cells) or in the presence of logarithmic concentrations of Aur and MA for 24 h more, under the same culture conditions described above. Viability of cultured cells was determined by the trypan blue exclusion assay. The protein concentration was determined by the Lowry method.
For cell proliferation in the presence of drugs, cancer cells (20 x 10^3 cells/well) were grown in 96-well plates containing DMEM (Sigma-Aldrich) plus 10% bovine fetal serum for 24 h. […] The effect of these drugs on cell proliferation was determined in 96-well plates by the MTT (3-[4,5-dimethyl-thiazol-2-yl]-2,5-diphenyltetrazolium bromide) assay. The viability of cancer cells was > 95% after treatment with drugs.

Rat Liver Mitochondria = test: Oxygen consumption of isolated mitochondria; assay type: biochemical; conditions: for Net State 3 oxygen consumption rate / Pseudo State 4 oxygen consumption rate / RC, respiratory control / State 3 oxygen consumption rate / State 4 oxygen consumption rate / RC: Rat Liver Mitochondria
Method: Rat liver (RLM) and heart (RHM) mitochondria were isolated as described previously by differential centrifugation.
Respiration of AS-30D, liver and heart mitochondria (1 mg protein/mL) was assayed oxygraphically with a Clark-type O2 electrode in KME (120 mM KCl, 20 mM Mops, 1 mM EGTA) buffer pH 7.2 plus 2 mM KH2PO4, and different oxidizable substrates (as indicated in Results). For state 3 respiration, 600 nmol ADP were added. Mitochondria were incubated at 37°C with Aur and MA for 30–60 s before substrates were added. At the end of each respiratory measurement, dithionite was added to get the chemical zero oxygen signal.
Isolated mitochondria (1mg protein/mL) were incubated in KME buffer (120 mM KCl, 20 mM MOPS, 1 mM EGTA) pH 7.20 plus 2 mM KH2PO4 and the indicated oxidizable substrates. For state 3 (ADP-stimulated) respiration, 300-600 nmol ADP were added. RC, respiratory control; n=3. To get the maximal reduction of molecular oxygen (zero oxygen concentration), sodium dithionite (Na2O4S2) was added at the end of each measurement.

[1] = tested on: HeLa, MDA-MB-231 and MDA-MB-468 cells; test: Energy metabolism pathway fluxes in intact cancer cells, pooled; assay type: cell-based, human; conditions: 24 h
Method: For glycolysis flux, cells (3 mg protein/mL) were incubated in KR buffer. Glycolysis was started by adding 5 mM external glucose (Sigma-Aldrich, MO, USA), and cellular samples were withdrawn after 0 and 10 min of incubation at 37°C under smooth orbital shaking. At the indicated times, the cells were rapidly mixed with 3% (w/v) ice-cold perchloric acid and centrifuged. The supernatants were neutralized with 1N KOH/100mM Tris. To rule out lactate production by glutaminolysis, cells were also incubated with 10 mM 2-deoxyglucose (Sigma-Aldrich, MO, USA). Lactate was determined by a standard method with lactate dehydrogenase (Roche, Mannheim, Germany) following the NADH formation at 340 nm.
For oxidative phosphorylation (OxPhos) flux, cells (2–5 mg protein/mL) were incubated at 37°C in air saturated KR medium plus 5 mM glucose. […] The net OxPhos rate was determined by using a Clark type electrode, as previously described and by using a high-resolution respirometer (Oroboros Instruments, Innsbruck, Austria) at 37°C. The contribution of OxPhos and glycolysis to the cellular ATP supply was determined, respectively, from the net OxPhos rate (oligomycin-sensitive respiration) multiplied by the ATP/O or P»/O2 ratio that corresponds to 2.5 or 5, and from the rate of lactate production, assuming a stoichiometry of 1 mol of ATP produced per 1 mol of lactate produced.

[2] = 5 mM Glutamate/5 mM Malate, 10 μM Aur
[3] = 5 mM Glutamate/5 mM Malate, 25 μM Aur
[4] = 5 mM Glutamate/5 mM Malate, 50 μM Aur
[5] = 5 mM Glutamate/5 mM Malate, 100 μM Aur
[6] = Succinate 0.5 mM + Rotenone 2 µM, 10 µM Aur
[7] = Succinate 0.5 mM + Rotenone 2 µM, 25 µM Aur
[8] = Succinate 0.5 mM + Rotenone 2 µM, 50 µM Aur
[9] = Succinate 0.5 mM + Rotenone 2 µM, 100 µM Aur
[10] = 5 mM Glutamate/5 mM Malate, 10 μM MA
[11] = 5 mM Glutamate/5 mM Malate, 50 μM MA

For `CC(=O)OC[C@H]1O[C@@H]([S-])[C@H](OC(C)=O)[C@@H](OC(C)=O)[C@@H]1OC(C)=O.CCP(CC)CC.[Au+]` [Aur, [1-(thio-κS)-β-D-glucopyranose-2,3,4,6-tetraacetyl] (triethylphosphine)-gold], the IC50 (Cervix HeLa cells) was 1.7 ± 0.4 µM, the “effect on proliferation after shorter exposure” value (Cervix HeLa cells) was < 15% and the “TI ratio (3T3/ cancer cells)” value (Cervix HeLa cells) was 25. The “TI ratio (H9C2/cancer cells)” value (Cervix HeLa cells) was 46, the “inhibition of state 3 respiration rates” value (Rat Liver Mitochondria; RLM) was 20–54% and the “increase of state 4 respiration rates (times)” value (Rat Liver Mitochondria; RLM, GM) was 1.8–1.9 times. The “Net State 3 oxygen consumption rate” value (Rat Liver Mitochondria; [2]) was 123.5 ± 59 nmol O2 min^-1 mg protein^-1, the “Pseudo State 4 oxygen consumption rate” value (Rat Liver Mitochondria; [2]) was 27.5 ± 3 nmol O2 min^-1 mg protein^-1 and the “RC, respiratory control” value (Rat Liver Mitochondria; [2]) was 8 ± 1. The “State 3 oxygen consumption rate” value (Rat Liver Mitochondria; [2]) was 151 ± 61.5 nmol O2 min^-1 mg protein^-1, the “State 4 oxygen consumption rate” value (Rat Liver Mitochondria; [2]) was 18 ± 5 nmol O2 min^-1 mg protein^-1 and the “Net State 3 oxygen consumption rate” value (Rat Liver Mitochondria; [3]) was 62 nmol O2 min^-1 mg protein^-1. For the same compound, the “Pseudo State 4 oxygen consumption rate” value (Rat Liver Mitochondria; [3]) was 27 (2) nmol O2 min^-1 mg protein^-1, the “RC, respiratory control” value (Rat Liver Mitochondria; [3]) was 6 (2) and the “State 3 oxygen consumption rate” value (Rat Liver Mitochondria; [3]) was 89 (2) nmol O2 min^-1 mg protein^-1. The “State 4 oxygen consumption rate” value (Rat Liver Mitochondria; [3]) was 15 (2) nmol O2 min^-1 mg protein^-1, the “Net State 3 oxygen consumption rate” value (Rat Liver Mitochondria; [4]) was 48 nmol O2 min^-1 mg protein^-1 and the “Pseudo State 4 oxygen consumption rate” value (Rat Liver Mitochondria; [4]) was 30.5 (2) nmol O2 min^-1 mg protein^-1. For the same compound, the “RC, respiratory control” value (Rat Liver Mitochondria; [4]) was 5.5 (2), the “State 3 oxygen consumption rate” value (Rat Liver Mitochondria; [4]) was 78.5 (2) nmol O2 min^-1 mg protein^-1 and the “State 4 oxygen consumption rate” value (Rat Liver Mitochondria; [4]) was 16 (2) nmol O2 min^-1 mg protein^-1. The “Net State 3 oxygen consumption rate” value (Rat Liver Mitochondria; [5]) was 25 nmol O2 min^-1 mg protein^-1, the “Pseudo State 4 oxygen consumption rate” value (Rat Liver Mitochondria; [5]) was 48 (2) nmol O2 min^-1 mg protein^-1 and the “RC, respiratory control” value (Rat Liver Mitochondria; [5]) was 3 (2). For the same compound, the “State 3 oxygen consumption rate” value (Rat Liver Mitochondria; [5]) was 73 (2) nmol O2 min^-1 mg protein^-1, the “State 4 oxygen consumption rate” value (Rat Liver Mitochondria; [5]) was 26 (2) nmol O2 min^-1 mg protein^-1 and the “Net State 3 oxygen consumption rate” value (Rat Liver Mitochondria; [6]) was 116 (2). The “Pseudo State 4 oxygen consumption rate” value (Rat Liver Mitochondria; [6]) was 33 (2), the RC (Rat Liver Mitochondria; [6]) was 5.4 (2) and the “State 3 oxygen consumption rate” value (Rat Liver Mitochondria; [6]) was 150 (2). For the same compound, the “State 4 oxygen consumption rate” value (Rat Liver Mitochondria; [6]) was 68 (2), the “Net State 3 oxygen consumption rate” value (Rat Liver Mitochondria; [7]) was 88 (2) and the “Pseudo State 4 oxygen consumption rate” value (Rat Liver Mitochondria; [7]) was 73 (2). For the same compound, the RC (Rat Liver Mitochondria; [7]) was 4.8 (2), the “State 3 oxygen consumption rate” value (Rat Liver Mitochondria; [7]) was 161 (2) and the “State 4 oxygen consumption rate” value (Rat Liver Mitochondria; [7]) was 39.5 (2). The “Net State 3 oxygen consumption rate” value (Rat Liver Mitochondria; [8]) was 36.5 (2), the “Pseudo State 4 oxygen consumption rate” value (Rat Liver Mitochondria; [8]) was 63.5 (2) and the RC (Rat Liver Mitochondria; [8]) was 2.3 (2). For the same compound, the “State 3 oxygen consumption rate” value (Rat Liver Mitochondria; [8]) was 95.5 (2), the “State 4 oxygen consumption rate” value (Rat Liver Mitochondria; [8]) was 40.5 (2) and the “Net State 3 oxygen consumption rate” value (Rat Liver Mitochondria; [9]) was 20 (2). For the same compound, the “Pseudo State 4 oxygen consumption rate” value (Rat Liver Mitochondria; [9]) was 59 (2), the RC (Rat Liver Mitochondria; [9]) was 2.5 (2) and the “State 3 oxygen consumption rate” value (Rat Liver Mitochondria; [9]) was 64 (2). For the same compound, the “State 4 oxygen consumption rate” value (Rat Liver Mitochondria; [9]) was 56 (2) and the “inhibition of OxPhos and glycolysis fluxes” value ([1]; HeLa and MDA-MB-231 cells, Aur at IC50) was 48–75%.

For `Cc1ccc(Cl)c(Nc2ccccc2C(=O)O)c1Cl` [MA, Meclofenamic acid], the “effect on proliferation after shorter exposure” value (Cervix HeLa cells) was < 15%, the IC50 (Cervix HeLa cells; Homo sapiens) was 6 ± 3 µM and the “TI ratio (3T3/ cancer cells)” value (Cervix HeLa cells) was 17. The “TI ratio (H9C2/cancer cells)” value (Cervix HeLa cells) was 17, the “Net State 3 oxygen consumption rate” value (Rat Liver Mitochondria; [10]) was 81 (1) and the “Pseudo State 4 oxygen consumption rate” value (Rat Liver Mitochondria; [10]) was 32.5 (1). The RC (Rat Liver Mitochondria; [10]) was 8.6 (1), the “State 3 oxygen consumption rate” value (Rat Liver Mitochondria; [10]) was 113.5 (1) and the “State 4 oxygen consumption rate” value (Rat Liver Mitochondria; [10]) was 13.5 (1). The “Net State 3 oxygen consumption rate” value (Rat Liver Mitochondria; [11]) was 61 ± 27, the “Pseudo State 4 oxygen consumption rate” value (Rat Liver Mitochondria; [11]) was 42 ± 15 (3) and the RC (Rat Liver Mitochondria; [11]) was 2.1 ± 0.2 (3). The “State 3 oxygen consumption rate” value (Rat Liver Mitochondria; [11]) was 102 ± 23 (3), the “State 4 oxygen consumption rate” value (Rat Liver Mitochondria; [11]) was 50 ± 17 (3) and the “inhibition of OxPhos flux” value ([1]; MA 6–50 μM (Table 2)) was 31–66%.
